The record followed here is patent US20250321225A1, “SKIN DAMAGE ORGANOID MODEL AND DRUG SCREENING METHOD USING THE SAME” (KANGSTEM BIOTECH CO., LTD., priority 2023, published 2025).

The structures appear in SMILES notation.

Holding throughout (type): cell-based, human
For assay [1], the system named is inflammatory cytokines, such as IL-6, TNF-α, and IL-1β. Description: Inflammatory cytokine expression and secretion in sUV-exposed SkOs (qPCR, immunofluorescence, ELISA). The method, then: It is known that sUV irradiation causes the secretion of pro-inflammatory cytokines in skin tissue, leading to skin inflammation and subsequent skin damage. Accordingly, it was investigated whether sUV exposure can also affect hair follicles and induce an inflammatory response in the dermis of SkOs.
Furthermore, the secretion of inflammatory cytokines, such as IL-6, TNF-α, and IL-1β, increased by sUV exposure, was evaluated by ELISA.

The test system of assay [2] is NF-κB. Description: IκB/NF-κB signaling in sUV-exposed SkOs (Western blotting, immunofluorescence). The source says:
NF-κB is known to play an important role in regulating the expression of immune mediators. […] When activated by external stimuli such as inflammatory cytokines or cellular stress, the IκBα protein is phosphorylated and subsequently degraded, releasing NF-κB from the NF-κB-IκB complex. The released NF-κB translocates to the cell nucleus to promote the transcription of genes involved in inflammation and induce cytokine production. Considering the above, the present inventors investigated whether IκB-dependent NF-κB activation mediates the inflammatory response in hair follicles.
This caused the disruption of the NF-κB-IκB complex which activated NF-κB and caused it to translocate to the nucleus, as evidenced by increased NF-κB expression in the nuclear compartment of SkOs exposed to sUV. After treating the sUV-exposed SkOs with UCB-Exos, it was observed that both IκBα phosphorylation and degradation decrease, and nuclear translocation of NF-κB was inhibited (FIGS. 7A and 7B). […] Generally, hair follicles are composed of keratinocytes and fibroblasts, both of which play an important role in skin inflammatory responses. […] Meanwhile, the epidermis of SkOs, which is the uppermost layer exposed to sUV, was also inflamed, which may extend to the dermis and indirectly damage hair follicles (FIGS. 7G and 7H).
To evaluate the direct effect of UCB-Exos alleviating sUV-induced damage by NF-κB activation, the present inventors treated a sUV-damaged organoid with the NF-κB inhibitor, BAY11-7082. BAY11-7082 is known to inhibit the translocation of NF-κB to the nucleus by inhibiting the degradation of IκBα unit, thereby preventing further activation of NF-κB signaling.
As expected, it was confirmed that IL-6 expression was positively correlated with the expression level of NF-κB (FIGS. 8A and 8B).

Assay [3] deals with normal hair follicles. Description: Hair follicle growth in normal hair follicle organoid. The note with it: for hair follicle length compared to the control: 14 days after drug treatment. The source says:
The hair follicle growth was compared after treatment with each of minoxidil, which is known to promote hair follicle growth, and dihydrotestosterone (DHT), which is an endogenous hormone causing hair loss.

The subject of assay [4] is hair follicles in SkOs. Description: Hair follicle damage in sUV-exposed SkOs. On the procedure:
The effects of sUV exposure on skin appendages in the dermis of SkOs were investigated. As a result, it was confirmed that the expression of a KRT5 marker constituting the outer layer of a hair follicle in SkOs was reduced. […] Accordingly, to thoroughly compare the extent of hair follicle damage, hair follicles were isolated from each skin organoid and subjected to qRT-PCR analysis. […] To determine the optimal concentration of UCB-Exos for alleviating SkO damage by sUV, SkOs were treated with different concentrations of UCB-Exos two hours after sUV exposure, and this procedure was repeated three times (FIG. 5A). […] The effect of UCB-Exos on hair follicles in SkOs was investigated. In the hair follicles, apoptosis (cleaved caspase-3^+) was reduced, and the number of regenerating cells (Ki67^+) increased (FIGS. 6A and 6B). In addition, keratinocytes and fibroblasts in the hair follicles aged by sUV are known to secrete MMPs and inflammatory cytokines known as a senescence-associated secretory phenotype (SASP).

As for `Cc1ccc(S(=O)(=O)/C=C/C#N)cc1` [BAY11-7082], the “difference in IL-6 and TNF-α secretion between BAY11-7082-treated SkOs and UCB-Exos-treated SkOs” value in assay [1] (ELISA) is recorded as “no significant difference”. In assay [1] (immunofluorescence staining), the “IL-6 in the cytoplasm in hair follicles” value is “significant decrease”. In assay [2] (Western blotting, Example 6), the IκBα degradation result is on record as “inhibition”, the “NF-κB nuclear translocation / activation / levels” value is “reduced” and the “phosphorylated IκBα” value was “decreased”. Moreover, in assay [2] (immunofluorescence staining), the “NF-κB translocation to the nuclei in hair follicles” value is listed as “significant decrease”. Also, the “hair follicle length compared to the control” value in assay [3] is given as “approximately 1.4 fold”. For the same compound, in assay [3] (compared to the control), the “expression of genes (IGF-1, WNT3A) associated with hair growth promotion” value was “upregulated” and the “hair loss-associated genes (DKK1, TGFb-2)” value was “downregulated”. Further, the “apoptosis / death rate in hair follicles” value in assay [4] (Example 6) is listed as “reduced”. The “mRNA expression of ECM components associated with inflammatory cytokines and SASP” value in assay [4] (hair follicles) was “dramatically reduced”.
`C[C@]12CCC(=O)C[C@@H]1CC[C@@H]1[C@@H]2CC[C@]2(C)[C@@H](O)CC[C@@H]12` [DHT, dihydrotestosterone]: the “hair follicle length compared to the control” value in assay [3] is “approximately 0.7 fold”.
`Nc1cc(N2CCCCC2)nc(N)[n+]1[O-]` [minoxidil]: the “hair follicle length compared to the control” value in assay [3] is on record as “approximately 1.3 fold”.
